Results as given in ChEMBL document CHEMBL4007392, “Modulating Mineralocorticoid Receptor with Non-steroidal Antagonists. New Opportunities for the Development of Potent and Selective Ligands without Off-Target Side Effects” (J Med Chem, 2017).

Experiments:
[1] = biological target: T1, Mineralocorticoid receptor (Homo sapiens, UniProt P08235); experiment: Displacement of [3H]-Aldosterone from MR overexpressed in human 293 cells measured after overnight incubation by TopCount method; type: cell-based
T1 sequence (P08235 whole entry): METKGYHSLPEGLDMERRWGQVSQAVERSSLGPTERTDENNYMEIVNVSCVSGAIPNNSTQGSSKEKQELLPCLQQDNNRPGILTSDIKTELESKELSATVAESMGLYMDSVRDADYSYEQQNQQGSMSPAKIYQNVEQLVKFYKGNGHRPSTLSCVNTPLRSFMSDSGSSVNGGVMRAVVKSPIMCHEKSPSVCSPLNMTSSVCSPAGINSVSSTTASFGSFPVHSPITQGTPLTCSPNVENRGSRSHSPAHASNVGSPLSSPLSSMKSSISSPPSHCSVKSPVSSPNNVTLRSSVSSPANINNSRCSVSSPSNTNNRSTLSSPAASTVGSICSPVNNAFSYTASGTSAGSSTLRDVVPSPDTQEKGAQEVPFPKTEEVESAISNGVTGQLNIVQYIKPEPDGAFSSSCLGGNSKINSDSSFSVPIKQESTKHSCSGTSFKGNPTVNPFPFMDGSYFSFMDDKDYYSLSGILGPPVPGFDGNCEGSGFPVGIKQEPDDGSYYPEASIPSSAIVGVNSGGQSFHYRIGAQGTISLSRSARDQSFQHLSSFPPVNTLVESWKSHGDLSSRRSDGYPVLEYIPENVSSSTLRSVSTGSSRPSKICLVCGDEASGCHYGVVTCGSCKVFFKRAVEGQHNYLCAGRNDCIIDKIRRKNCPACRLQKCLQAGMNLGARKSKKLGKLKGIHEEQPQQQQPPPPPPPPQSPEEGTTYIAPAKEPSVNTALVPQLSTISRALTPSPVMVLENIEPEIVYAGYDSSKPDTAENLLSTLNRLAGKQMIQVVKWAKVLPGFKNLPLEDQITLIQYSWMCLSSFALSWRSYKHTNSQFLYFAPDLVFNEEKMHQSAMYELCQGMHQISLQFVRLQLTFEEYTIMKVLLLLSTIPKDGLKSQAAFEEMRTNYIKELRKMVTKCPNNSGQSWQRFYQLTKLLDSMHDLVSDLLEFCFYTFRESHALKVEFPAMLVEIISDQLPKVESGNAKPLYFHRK

[2] = biological target: T1, Mineralocorticoid receptor; experiment: Displacement of [3H]-Aldosterone from MR overexpressed in human 293 cells measured after 2 hrs by Microbeta scintillation counting method; type: cell-based
[3] = biological target: T1, Mineralocorticoid receptor; experiment: Antagonist activity at Gal4-fused human MR LBD (734 to 985 residues) expressed in CHO-K1 cells after 5 to 6 hrs by luciferase reporter gene assay; type: cell-based
[4] = biological target: T1, Mineralocorticoid receptor; experiment: Antagonist activity at Gal4-fused human MR LBD (671 to 984 residues) expressed in African Green Monkey CV-1 cells assessed as inhibition of aldosterone-induced transactivation activity after 20 hrs by luciferase reporter gene assay; type: cell-based
[5] = biological target: T2, Mineralocorticoid receptor (Homo sapiens) (UniProt P08235); experiment: Antagonist activity at full-length human MR expressed in CHO-K1 cells assessed as inhibition of aldosterone-induced response measured after overnight incubation by luminesence analysis; type: cell-based
T2 sequence (whole entry): T1 sequence (P08235 whole entry)

[6] = Displacement of [3H]-Aldosterone from recombinant rhesus monkey MR expressed in baculovirus infected insect cells after 3 hrs by filter-based Topcount method; set-up: species or system Macaca mulatta

CCC(CC)(c1ccc2c(c1)OCCO2)c1c[nH]c2c(NS(C)(=O)=O)cccc12
Ki [1]: ≤ 500 nM

C[C@H](CN1CCOCC1)n1/c(=N\C(N)=O)[nH]c2cc(/C=C3\c4ccccc4COc4cc(F)ccc43)ccc21 [LY2623091]
Ki [2]: 0.33 nM

CCc1cnc2cccc(C3C(C#N)=C(C)NC(C)=C3C(=O)OC(C)C)c2c1 (stereo not drawn)
IC50 [3]: 310 nM

Cc1c(C(=O)Nc2ccc(S(C)(=O)=O)cc2)cc([C@H](C)[C@H](C)O)n1-c1ccc(F)cc1C(F)(F)F (mixture of isomers)
IC50 [4]: 6.2 nM

N#C/N=c1/[nH]c2cc(/C=C3/c4ccc(F)cc4OCc4c(F)cccc43)ccc2n1[C@@H]1C[C@@H]2COCCN2C1
Ki [2]: ≤ 10 nM

COC(=O)c1c(C)nc(C)c(C(=O)CC2CCC2)c1-c1cccc2c(=O)cc(C)oc12
IC50 [3]: 18 nM

CCC(O)C(CC(F)F)(c1ccc(C(F)(F)F)cc1)n1ncc2c(NS(C)(=O)=O)cccc21 (stereo not drawn)
Inhibitory potency [5]: 15 nM

CCC(CC)(c1cc2ccccc2o1)c1c[nH]c2c(NS(C)(=O)=O)cccc12
Ki [1]: ≤ 500 nM

CCC(O)C(CC)(c1ccc(C(F)(F)F)cc1)n1ncc2c(NS(C)(=O)=O)cc(F)cc21 (stereo not drawn)
Inhibitory potency [5]: 9 nM

N#C/N=c1/[nH]c2cc(/C=C3/c4ccc(F)cc4OCc4c(F)cccc43)ccc2n1[C@H]1C[C@@H]2COCCN2C1
Ki [2]: 0.23 nM

CC(c1ccccc1)n1ccnc1C(c1ccccc1)c1ccccc1 (stereo not drawn)
Ki [6]: 285 nM

CN1CCN(n2/c(=N\C#N)[nH]c3cc(/C=C4\c5ccccc5COc5cc(F)ccc54)ccc32)CC1
Ki [2]: 0.08 nM

CC1=C(C#N)C(c2cccc3c2-c2ccccc2C3=O)C(C(=O)OC(C)C)=C(C)N1 (stereo not drawn)
IC50 [3]: 23 nM

Cc1cc(C(=O)Nc2cccc3ccccc23)c(C)n1-c1ccccc1C(F)(F)F
IC50 [4]: < 500 nM

C[C@@H](CN1CCOCC1)n1/c(=N/C#N)[nH]c2cc(/C=C3\c4ccccc4COc4cc(F)ccc43)ccc21
Ki [2]: ≤ 10 nM

CCC(CC)(c1ccc(O)cc1)c1c[nH]c2c(NS(C)(=O)=O)cccc12
Ki [1]: ≤ 500 nM

Cc1c(C(=O)Nc2ccc(S(C)(=O)=O)cc2)cn([C@H](C)[C@H](C)O)c1-c1ccc(F)cc1C(F)(F)F
IC50 [4]: 3.8 nM

Cc1[nH]c(C(=O)Nc2ccc(S(C)(=O)=O)cc2)c(C)c1-c1ccccc1C(F)(F)F
IC50 [4]: < 500 nM

CN1C[C@H](O)[C@@H](n2/c(=N/C#N)[nH]c3cc(/C=C4\c5ccccc5COc5cc(F)ccc54)ccc32)C1
Ki [2]: ≤ 10 nM

CC1=C(C#N)C(c2cccc3c(=O)cc(C)oc23)C(C(=O)OC(C)C)=C(C)N1 (stereo not drawn)
IC50 [3]: 160 nM

N#C/N=c1/[nH]c2cc(/C=C3/c4ccc(F)cc4OCc4c(F)cccc43)ccc2n1[C@H]1C[C@H]2COCCN2C1
Ki [2]: ≤ 10 nM

Cc1ccc(NC(=O)c2cc(C)n(-c3ccccc3C(F)(F)F)c2C)cc1Cl
IC50 [4]: < 500 nM

CCC(CC)(c1ccc2ncsc2c1)c1c[nH]c2c(NS(C)(=O)=O)cccc12
Ki [1]: ≤ 500 nM

Cc1c(C(=O)Nc2ccc(S(C)(=O)=O)cc2)cc(CCO)n1-c1ccc(Cl)cc1C(F)(F)F (single isomer, unassigned; atropisomer 2)
IC50 [4]: > 1000 nM

Cc1c(C(=O)Nc2ccc(S(C)(=O)=O)cc2)cc(CCF)n1-c1ccc(F)cc1OC(F)F (single isomer, unassigned; atropisomer 2)
IC50 [4]: > 1000 nM

C[C@@H](CN1CCOCC1)n1/c(=N/C#N)[nH]c2cc(/C=C3\c4ccc(F)cc4COc4cc(F)ccc43)ccc21
Ki [2]: ≤ 10 nM

COC(=O)C1=C(C)NC(C)=C(C(=O)OC)C1c1cccc2ccccc12
Ki [6]: 61 nM

Cc1cc(C(=O)Nc2ccc(S(N)(=O)=O)cc2)c(C)n1-c1ccccc1C(F)(F)F
IC50 [4]: < 500 nM

Cc1cc(C(=O)NCCc2ccccc2)c(C)n1-c1ccccc1C(F)(F)F
IC50 [4]: < 500 nM

C[C@@H](CN1CCOCC1)n1/c(=N/C#N)[nH]c2cc(/C=C3/c4ccc(F)cc4OCc4c(F)cccc43)ccc21
Ki [2]: ≤ 10 nM

C[C@H](CN1CCOCC1)n1/c(=N\C#N)[nH]c2cc(/C=C3/c4ccc(F)cc4OCc4c(F)cccc43)ccc21
Ki [2]: ≤ 10 nM

CCC(CC)(c1ccccc1)c1c[nH]c2c(NS(C)(=O)=O)cccc12
Ki [1]: ≤ 500 nM

CC(=O)C1=C(C)NC(C)=C(C(=O)OC2CCC2)[C@@H]1c1cccc2c(=O)cc(C)oc12
IC50 [3]: 7 nM

Cc1c(C(=O)Nc2ccc(S(C)(=O)=O)cc2)cn([C@H](C)[C@H](C)O)c1-c1ccc(F)cc1C(F)(F)F (single isomer, unassigned; atropisomer 2)
IC50 [4]: > 1000 nM

COc1cc(C2C(C(=O)Oc3ccccc3)=C(C)NC(C)=C2C(=O)Oc2ccccc2)ccc1O
Ki [6]: 21.5 nM

Cc1cccc(Cn2ccnc2C(c2ccccc2)c2ccccc2)c1
Ki [6]: 134 nM

CCSC1=C(C#N)C(c2ccccc2Cl)C(C(=O)Nc2ccccc2OC)=C(C)N1 (stereo not drawn)
Ki [6]: 53 nM

CCOc1nccc2c1C(c1ccc(C#N)cc1OC)C(C#N)=C(C)N2 (stereo not drawn)
IC50 [3]: 100 nM

CCCSC1=C(C#N)C(c2ccccc2Cl)C(C(=O)Nc2ccccc2OC)=C(C)N1 (stereo not drawn)
Ki [6]: 14.9 nM

CCC(c1ccc(C(F)(F)F)cc1)(C(O)C(F)F)n1ncc2c(NS(=O)(=O)CC)cc(F)cc21 (stereo not drawn)
Inhibitory potency [5]: 11 nM

CCC(CC)(c1ccc(Cl)cc1)c1c[nH]c2c(NS(C)(=O)=O)cccc12
Ki [1]: ≤ 500 nM

NC(=O)/N=c1/[nH]c2cc(/C=C3\c4ccccc4COc4cc(F)ccc43)ccc2n1[C@H]1C[C@@H]2COCCN2C1
Ki [2]: ≤ 10 nM

CCC(O)C(CC)(c1ccc(Br)cc1)n1ncc2c(NS(C)(=O)=O)cccc21 (stereo not drawn)
Inhibitory potency [5]: 3 nM

N#C/N=c1\[nH]c2cc(/C=C3/c4ccc(F)cc4OCc4c(F)cccc43)ccc2n1[C@@H]1C[C@H]2COCCN2C1
Ki [2]: ≤ 10 nM

Cc1c(C(=O)Nc2ccc(S(C)(=O)=O)cc2)cc(C[C@H](C)O)n1-c1ccc(Cl)cc1C(F)(F)F (single isomer, unassigned; atropisomer 2)
IC50 [4]: > 1000 nM

C[C@H](CN1CCOCC1)n1/c(=N\C#N)[nH]c2cc(/C=C3\c4ccc(F)cc4COc4cc(F)ccc43)ccc21
Ki [2]: 0.79 nM

CCC(c1ccc(C(F)(F)F)cc1)(C(O)C(F)F)n1ncc2c(NS(=O)(=O)CC)cccc21 (stereo not drawn)
Inhibitory potency [5]: 4 nM

Cc1c(C(=O)Nc2ccc(S(C)(=O)=O)cc2)cc(C[C@H](C)O)n1-c1ccc(Cl)cc1-c1ccc(F)cc1 (single isomer, unassigned; atropisomer 2)
IC50 [4]: > 1000 nM
